The subject of assay [1] is Lipid bilayer. The assay is described as follows: Binding affinity to synthetic palmitoyl-oleoyl-phosphatidylcholine liposome assessed as association constant for compound- PPC liposome reorientation complex at 10 uM by surface plasmon resonance assay in presence of 5% cholesterol. A general note: Surface plasmon resonance follows binding to a sensor surface in real time, without labels.

The subject of assay [2] is Lipid bilayer. The assay is described as follows: Binding affinity to synthetic palmitoyl-oleoyl-phosphatidylcholine liposome at 10 uM by surface plasmon resonance assay in presence of 5% ergosterol.
For assay [3], the system named is Lipid bilayer. The experiment in a line: Binding affinity to synthetic palmitoyl-oleoyl-phosphatidylcholine liposome assessed as association constant for compound- PPC liposome reorientation complex at 10 uM by surface plasmon resonance assay.
Assay [4] has as its system Lipid bilayer. The assay is described as follows: Binding affinity to synthetic palmitoyl-oleoyl-phosphatidylcholine liposome at 10 uM by surface plasmon resonance assay.
For assay [5], the system named is Lipid bilayer. The assay is described as follows: Binding affinity to synthetic palmitoyl-oleoyl-phosphatidylcholine liposome assessed as overall equilibrium association constant at 10 uM by surface plasmon resonance assay in presence of 5% cholesterol.
For assay [6], the system named is Lipid bilayer. The assay is described as follows: Binding affinity to synthetic palmitoyl-oleoyl-phosphatidylcholine liposome assessed as overall equilibrium association constant at 10 uM by surface plasmon resonance assay in presence of 5% ergosterol.
Assay [7] has as its system Lipid bilayer. The experiment in a line: Binding affinity to synthetic palmitoyl-oleoyl-phosphatidylcholine liposome assessed as association constant for compound- PPC liposome reorientation complex at 10 uM by surface plasmon resonance assay in presence of 5% ergosterol.
Assay [8] relates to Lipid bilayer. The experiment in a line: Binding affinity to synthetic palmitoyl-oleoyl-phosphatidylcholine liposome at 10 uM by surface plasmon resonance assay in presence of 5% cholesterol.
The subject of assay [9] is Lipid bilayer. The experiment in a line: Binding affinity to synthetic palmitoyl-oleoyl-phosphatidylcholine liposome assessed as overall equilibrium association constant at 10 uM by surface plasmon resonance assay.

Consider `C=C/C=C/CC/C=C/C=C/C=C/CC/C=C/[C@@H](O)[C@@H](O)C1O[C@@H]([C@H](O)[C@H](O)C(=C)CCC(O)[C@H]2C[C@@H](O)[C@@H](O)C([C@@H](O)[C@H](O)/C=C(\C)CC[C@H](O)C[C@H](O)[C@@H](O)[C@@H](C)C[C@H](O)[C@@H](O)CCCCCC(O)CCC[C@@H](O)/C=C/C[C@@H](O)/C=C/C[C@H](O)CO)O2)CC(O)C1O` (some centres undefined), for which the KA was 3.92 10^3/M in the assay on Lipid bilayer [1]; 143 10^3/M in the assay with Lipid bilayer [2]; 0.93 10^3/M in the assay on Lipid bilayer [3]; 0.901 10^3/M in the assay on Lipid bilayer [4]; 721 10^3/M in the assay with Lipid bilayer [5]; 3970 10^3/M in the assay on Lipid bilayer [6]. Also, the values for the KA with Lipid bilayer [7], in the assay with Lipid bilayer [8] and in the assay with Lipid bilayer [9] were 28.6 10^3/M, 180 10^3/M and 0.764 10^3/M, respectively.

For the origin of these results see ChEMBL document CHEMBL1156316, “Sterol effect on interaction between amphidinol 3 and liposomal membrane as evidenced by surface plasmon resonance” (Bioorg Med Chem Lett, 2010).
